Assays:
[1] = test system: phosphatidyl inositol (PI3K) signaling pathway; assay: Example 6: cultured curly tail mice embryos, PNP closure; settings: embryos cultured from E9.5 to E10.5, in vitro
Experimental: To determine whether the downstream targets of the phosphatidyl inositol (PI3K) signaling pathway could be effected by an inhibitor, we can use […] to inhibit the effect of inositol on neural tube closure. The curly tail mice embryos are cultured from E9.5 to E10.5, and the length of unclosed neural folds at the pnp are measured to indicate predisposition to spina bifida. Embryos which are exposed to the kinase inhibitor alone have enlarged PNP's, reflecting the in vivo development of spinal NTD's by 50%-60% of curly tail embryos.

[2] = Example 2: females at risk of fetal malformations, treatment from before conception through first trimester; assay type: in vivo; settings: once daily from before conception through the end of the first trimester; relative to the untreated controls
Experimental: Females determined to be at risk of fetal malformations and who are seeking a further pregnancy are split into no treatment, folate treatment, D-chiroinositol treatment, and Folate+D-chiroinositol treatment arms. The respective regimens are administered once daily from before conception through the end of the first trimester. Relative to the untreated controls, the frequency of fetal malformations is reduced in each of the non-control arms.

[3] = Example 4: men on androgen ablative therapy, male breast cancer; assay type: in vivo; settings: prior to and throughout androgen ablative therapy; compared to controls
Text: Men preparing to initiate androgen ablative therapy are initiated on a course of D-chiroinositol prior to and throughout the treatment with the androgen ablative therapeutic.

curly tail model = settings: cited from earlier work
[4] = Example 7: fetal alcohol syndrome related defects in offspring of alcohol treated rats; assay type: in vivo; settings: given before and during the alcohol treatment; versus inositol free alcohol treated group
Experimental: Female rats are administered alcohol for 2 weeks and then mated. The alcohol administration continues through out pregnancy and the rate of fetal alcohol syndrome related defects in the offspring are noted. A second set of rats from the same strain are mated without having the alcohol treatment as a control and the rate of defects of the same type as noted in the first arm are noted. […] A third arm of the study includes rats that are administered D-chiroinositol or a phosphorylate thereof before and during the alcohol treatment and are otherwise treated in the same manner as in the alcohol treatment above.

PKB = settings: increasing extracellular Ins(1,3,4,5,6)P5; cited from earlier work
PDK1 [5] = target: T1, PDK1 (Homo sapiens, UniProt O15530); settings: phosphorylation of the PDK tide peptide substrate by PDK1; cited from earlier work
T1 sequence (O15530 1-556): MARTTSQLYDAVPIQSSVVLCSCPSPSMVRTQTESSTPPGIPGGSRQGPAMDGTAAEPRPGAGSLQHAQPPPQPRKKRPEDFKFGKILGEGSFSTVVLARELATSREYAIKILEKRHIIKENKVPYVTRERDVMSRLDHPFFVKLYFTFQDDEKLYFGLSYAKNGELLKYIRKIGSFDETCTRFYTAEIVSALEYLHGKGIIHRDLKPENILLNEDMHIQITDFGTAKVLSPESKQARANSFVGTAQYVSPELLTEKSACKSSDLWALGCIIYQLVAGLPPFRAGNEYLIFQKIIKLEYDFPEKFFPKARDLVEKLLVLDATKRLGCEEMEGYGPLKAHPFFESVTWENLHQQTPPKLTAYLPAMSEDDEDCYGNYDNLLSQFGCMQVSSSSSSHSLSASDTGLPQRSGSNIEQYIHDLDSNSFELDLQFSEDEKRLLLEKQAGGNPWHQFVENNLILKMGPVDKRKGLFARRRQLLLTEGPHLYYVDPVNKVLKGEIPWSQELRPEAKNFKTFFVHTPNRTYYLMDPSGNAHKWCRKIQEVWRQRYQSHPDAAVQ

PDK1 [6] = target: T1, PDK1; settings: cited from earlier work
Shh signaling [7] = settings: explants from mice at 13.5 days of gestation, six to eight days in culture; cited from earlier work
hedgehog signaling = settings: cultured neonatal mouse ovaries; cited from earlier work
amyloid β deposits = settings: in vivo; cited from earlier work
[8] = China 1993 to 1995; 3.1 per 10,000 births for those not taking folic acid; cited from earlier work
[9] = taken before conception and during early pregnancy; cited from earlier work
Shh signaling [10] = assay: Example 5: curly tail mice embryos, spinal and genitourinary defects; assay type: in vivo; settings: D-chiroinositol vs. myoinositol
Experimental: These embryos are exposed to the present invention compound D-chiroinositol vs. myoinositol and internal examination is conducted.

MDA-MB 231 cells = settings: cited from earlier work
PDAC cells = settings: in vitro; cited from earlier work
[11] = test system: Colo357, BxPc3, or PancTuI tumors; set-up: reduction of metastasis / reduction of the number of liver metastases / reduction of volumes of recurrent tumors: concentration or dose not given beside the values; settings: cited from earlier work; for reduction of the number of liver metastases / reduction of volumes of recurrent tumors: mouse, in vivo
[12] = severe combined immunodeficient mice, orthotopic tumors

Molecule: O[C@H]1[C@H](O)[C@H](O)[C@@H](O)[C@@H](O)[C@H]1O [D-chiroinositol, D-chiro-inositol]
- PNP closure [1]: normalizes PNP closure
- frequency of fetal malformations [2]: reduced
- frequency of male breast cancer [3]: substantially reduced
- frequency of spina bifida (curly tail model; curly tail model, compound alone): reduced frequency of spina bifida in this model to a greater extent than myo-inositol alone
- rate of fetal alcohol syndrome defects [4]: substantially less

Molecule: O=P(O)(O)OC1[C@@H](OP(=O)(O)O)[C@H](OP(=O)(O)O)C(O)[C@H](OP(=O)(O)O)[C@H]1OP(=O)(O)O (stereo partly shown) [Ins(1,3,4,5,6)P5]
- PKB activation in cells (PKB): lowered PKB activation
- direct inhibition of PDK1 catalytic activity (PDK1 [5]): did not directly inhibit

Molecule: O=P(O)(O)O[C@@H]1[C@H](O)[C@H](O)[C@@H](OP(=O)(O)O)[C@H](OP(=O)(O)O)[C@H]1O [Ins(1,4,5)P3]
- binding to PDK1 (PDK1 [6]): could not be detected

Molecule: O=P(O)(O)O[C@H]1[C@H](OP(=O)(O)O)[C@@H](OP(=O)(O)O)[C@H](OP(=O)(O)O)[C@@H](OP(=O)(O)O)[C@H]1OP(=O)(O)O [InsP6]
- direct inhibition of PDK1 catalytic activity (PDK1 [5]): did not directly inhibit

Molecule: CC1=C2C[C@H]3[C@@H](CC=C4C[C@@H](O)CC[C@@]43C)[C@@H]2CC[C@]12O[C@@H]1C[C@H](C)CN[C@H]1[C@H]2C [cyclopamine]
- morphogenesis of vibrissa follicles (Shh signaling [7]): striking inhibition of morphogenesis
- induced expression of hedgehog target genes Ptch1 and Gli1 (hedgehog signaling): inhibits this induced expression of target genes

Molecule: OC1C(O)C(O)C(O)C(O)C1O (stereo not drawn) [epi-inositol]
- efficacy in Alzheimer's disease (amyloid β deposits, cognitive ability) (amyloid β deposits): only worked at all when given before disease onset

Molecule: Nc1nc(O)c2nc(CNc3ccc(C(=O)N[C@@H](CCC(=O)O)C(=O)O)cc3)cnc2n1 [folic acid]
- rate of imperforate anus [8]: 1.6 per 10,000 births
- reduction of the risk of the fetus developing a neural tube defect [9]: about 70%
- frequency of fetal malformations [2]: reduced

Molecule: O[C@H]1[C@H](O)[C@@H](O)[C@H](O)[C@@H](O)[C@H]1O [myo-inositol]
- efficacy in Alzheimer's disease (amyloid β deposits, cognitive ability) (amyloid β deposits): not to be effective
- severity of spinal and genitourinary defects in embryos (Shh signaling [10]): severe compared to those embryos treated with D-chiroinositol
- incidence of neural tube defects (curly tail model; mouse models that are folate resistant): reduced the incidence of neural tube defects

Molecule: O=P(O)(O)O[C@H]1[C@H](OP(=O)(O)O)[C@@H](OP(=O)(O)O)[C@H](OP(=O)(O)O)[C@@H](OP(=O)(O)O)[C@H]1OP(=O)(O)O [myoinositol hexaphosphate]
- secretion of MMP-9 (MDA-MB 231 cells): significantly inhibits

Molecule: O[C@H]1[C@H](O)[C@@H](O)[C@H](O)[C@@H](O)[C@@H]1O [scyllo-inositol]
- efficacy in Alzheimer's disease (amyloid β deposits, cognitive ability) (amyloid β deposits): prevent the accumulation of amyloid β deposits and improved cognitive ability

Molecule: etanercept
- effect on proliferation and invasiveness of PDAC cells (PDAC cells): only marginally affected
- reduction of the number of liver metastases [11]: 42%
- reduction of volumes of recurrent tumors [11]: 51%

Molecule: infliximab: human-specific anti-TNF antibody
- effect on proliferation and invasiveness of PDAC cells (PDAC cells): only marginally affected
- reduction of the number of liver metastases [11]: 69%
- reduction of volumes of recurrent tumors [11]: 73%
- reduction of metastasis [11, 12]: ~50%
- reduction of tumor growth [11, 12]: about 30%

— patent publication US12329766B2, “Compounds, methods, and treatments for abnormal signaling pathways for prenatal and postnatal development” (priority 2006, dated 2025)
